Source: ChEMBL document CHEMBL4308897, “Antileishmanial activity and cytotoxicity of ent-beyerene diterpenoids” (Bioorg Med Chem, 2019)
The source made the active and inactive calls.

Columns and labels:
[1] = Renal toxicity in golden hamster infected with Leishmania (Viannia) braziliensis HMOM/COL/88/UA301-EGFP assessed as fibrosis at 200 ug administered intralesionally twice per week for 4 weeks measured 90 days post last dose by histopathological analysis; design: species or system Mesocricetus auratus; conditions: in vivo, other, 2160 h
[2] = Hepatotoxicity in golden hamster infected with Leishmania (Viannia) braziliensis HMOM/COL/88/UA301-EGFP assessed as infiltration of lymphocytes at 200 ug administered intralesionally twice per week for 4 weeks measured 90 days post last dose by histopathological analysis; type: toxicity, Mesocricetus auratus; conditions: in vivo, other, 2160 h
[3] = Renal toxicity in golden hamster infected with Leishmania (Viannia) braziliensis HMOM/COL/88/UA301-EGFP assessed as turbid degeneration at 200 ug administered intralesionally twice per week for 4 weeks measured 90 days post last dose by histopathological analysis; design: species or system Mesocricetus auratus; conditions: in vivo, other, 2160 h
[4] = Hepatotoxicity in golden hamster infected with Leishmania (Viannia) braziliensis HMOM/COL/88/UA301-EGFP assessed as congestion at 200 ug administered intralesionally twice per week for 4 weeks measured 90 days post last dose by histopathological analysis; type: toxicity, Mesocricetus auratus; conditions: in vivo, other, 2160 h
[5] = Hepatotoxicity in golden hamster infected with Leishmania (Viannia) braziliensis HMOM/COL/88/UA301-EGFP assessed as hyperplasia at 200 ug administered intralesionally twice per week for 4 weeks measured 90 days post last dose by histopathological analysis; type: toxicity, Mesocricetus auratus; conditions: in vivo, other, 2160 h
[6] = Hepatotoxicity in golden hamster infected with Leishmania (Viannia) braziliensis HMOM/COL/88/UA301-EGFP assessed as infiltration of macrophages at 200 ug administered intralesionally twice per week for 4 weeks measured 90 days post last dose by histopathological analysis; type: toxicity, Mesocricetus auratus; conditions: in vivo, other, 2160 h
[7] = Toxicity in golden hamster infected with Leishmania (Viannia) braziliensis HMOM/COL/88/UA301-EGFP assessed as change in body weight at 200 ug administered intralesionally twice per week for 4 weeks measured up to 90 days post last dose; design: species or system Mesocricetus auratus; conditions: in vivo, other
[8] = Toxicity in golden hamster infected with Leishmania (Viannia) braziliensis HMOM/COL/88/UA301-EGFP assessed as effect on serum creatinine level at 200 ug administered intralesionally twice per week for 4 weeks measured day 8 post last treatment; design: species or system Mesocricetus auratus; conditions: in vivo, other, 672 h
[9] = Renal toxicity in golden hamster infected with Leishmania (Viannia) braziliensis HMOM/COL/88/UA301-EGFP assessed as vacuolar degeneration at 200 ug administered intralesionally twice per week for 4 weeks measured 90 days post last dose by histopathological analysis; design: species or system Mesocricetus auratus; conditions: in vivo, other, 2160 h
[10] = Toxicity in golden hamster infected with Leishmania (Viannia) braziliensis HMOM/COL/88/UA301-EGFP assessed as effect on serum alanine aminotransferase level at 200 ug administered intralesionally twice per week for 4 weeks measured day 8 post last treatment; design: species or system Mesocricetus auratus; conditions: in vivo, other, 672 h
[11] = Renal toxicity in golden hamster infected with Leishmania (Viannia) braziliensis HMOM/COL/88/UA301-EGFP assessed as infiltration of lymphocytes at 200 ug administered intralesionally twice per week for 4 weeks measured 90 days post last dose by histopathological analysis; design: species or system Mesocricetus auratus; conditions: in vivo, other, 2160 h
[12] = Hepatotoxicity in golden hamster infected with Leishmania (Viannia) braziliensis HMOM/COL/88/UA301-EGFP assessed as vacuolar degeneration at 200 ug administered intralesionally twice per week for 4 weeks measured 90 days post last dose by histopathological analysis; type: toxicity, Mesocricetus auratus; conditions: in vivo, other, 2160 h
[13] = Toxicity in golden hamster infected with Leishmania (Viannia) braziliensis HMOM/COL/88/UA301-EGFP assessed as effect on serum BUN level at 200 ug administered intralesionally twice per week for 4 weeks measured day 8 post last treatment; design: species or system Mesocricetus auratus; conditions: in vivo, other, 672 h
[14] = Renal toxicity in golden hamster infected with Leishmania (Viannia) braziliensis HMOM/COL/88/UA301-EGFP assessed as infiltration of plasma cells at 200 ug administered intralesionally twice per week for 4 weeks measured 90 days post last dose by histopathological analysis; design: species or system Mesocricetus auratus; conditions: in vivo, other, 2160 h
[15] = Hepatotoxicity in golden hamster infected with Leishmania (Viannia) braziliensis HMOM/COL/88/UA301-EGFP assessed as external stress condition induced changes at 200 ug administered intralesionally twice per week for 4 weeks measured 90 days post last dose by histopathological analysis; type: toxicity, Mesocricetus auratus; conditions: in vivo, other, 2160 h
[16] = Renal toxicity in golden hamster infected with Leishmania (Viannia) braziliensis HMOM/COL/88/UA301-EGFP assessed as edema at 200 ug administered intralesionally twice per week for 4 weeks measured 90 days post last dose by histopathological analysis; design: species or system Mesocricetus auratus; conditions: in vivo, other, 2160 h
[17] = Hepatotoxicity in golden hamster infected with Leishmania (Viannia) braziliensis HMOM/COL/88/UA301-EGFP assessed as hemosiderin pigmentation at 200 ug administered intralesionally twice per week for 4 weeks measured 90 days post last dose by histopathological analysis; type: toxicity, Mesocricetus auratus; conditions: in vivo, other, 2160 h
[18] = Hepatotoxicity in golden hamster infected with Leishmania (Viannia) braziliensis HMOM/COL/88/UA301-EGFP assessed as congestion at 2.6% administered topically as cream formulation for 20 days measured 90 days post last dose by histopathological analysis; type: toxicity, Mesocricetus auratus; conditions: in vivo, topical_or_ocular, 2160 h
[19] = Toxicity in golden hamster infected with Leishmania (Viannia) braziliensis HMOM/COL/88/UA301-EGFP assessed as effect on serum creatinine level at 2.6% administered topically as cream formulation for 20 days and measured day 8 post last treatment; design: species or system Mesocricetus auratus; conditions: in vivo, topical_or_ocular, 480 h
[20] = Toxicity in golden hamster infected with Leishmania (Viannia) braziliensis HMOM/COL/88/UA301-EGFP assessed as change in body weight at 2.6% administered topically as cream formulation for 20 days measured up to 90 days post last dose; design: species or system Mesocricetus auratus; conditions: in vivo, topical_or_ocular
Leishmania braziliensis [21] = test: Antileishmanial activity against Leishmania (Viannia) braziliensis HMOM/COL/88/UA301-EGFP infected in golden hamster assessed as clinical improvement at 2.6% administered topically as cream formulation for 20 days measured 3 months post last dose relative to control; type: functional
[22] = Hepatotoxicity in golden hamster infected with Leishmania (Viannia) braziliensis HMOM/COL/88/UA301-EGFP assessed as vacuolar degeneration at 2.6% administered topically as cream formulation for 20 days measured 90 days post last dose by histopathological analysis; type: toxicity, Mesocricetus auratus; conditions: in vivo, topical_or_ocular, 2160 h
Leishmania braziliensis [23] = test: Antileishmanial activity against Leishmania (Viannia) braziliensis HMOM/COL/88/UA301-EGFP intracellular amastigotes infected in human U937 cells after 72 hrs by flow cytometric analysis; type: functional, organism-based; conditions: HMOM/COL/88/UA301, U-937, 72 h
Leishmania braziliensis [24] = test: Antileishmanial activity against Leishmania (Viannia) braziliensis HMOM/COL/88/UA301-EGFP infected in golden hamster assessed as clinical failure at 2.6% administered topically as cream formulation for 20 days measured 3 months post last dose relative to control; type: functional
Leishmania braziliensis [25] = test: Antileishmanial activity against Leishmania (Viannia) braziliensis HMOM/COL/88/UA301-EGFP infected in golden hamster assessed as cure rate at 2.6% administered topically as cream formulation for 20 days measured 3 months post last dose relative to control; type: functional
Syrian golden hamster [26] = test: Antiinflammatory activity in golden hamster infected with Leishmania (Viannia) braziliensis HMOM/COL/88/UA301-EGFP assessed as migration of macrophages in skin at 2.6% administered topically as cream formulation for 20 days and measured 3 months post last treatment by histopathological analysis; type: functional, organism-based; conditions: Mesocricetus auratus
[27] = Toxicity in golden hamster infected with Leishmania (Viannia) braziliensis HMOM/COL/88/UA301-EGFP assessed as effect on serum BUN level at 2.6% administered topically as cream formulation for 20 days and measured day 8 post last treatment; design: species or system Mesocricetus auratus; conditions: in vivo, topical_or_ocular, 480 h
Syrian golden hamster [28] = test: Antiinflammatory activity in golden hamster infected with Leishmania (Viannia) braziliensis HMOM/COL/88/UA301-EGFP assessed as re-epithelialization in skin at 2.6% administered topically as cream formulation for 20 days and measured 3 months post last treatment by histopathological analysis; type: functional, organism-based; conditions: Mesocricetus auratus
[29] = Toxicity in golden hamster infected with Leishmania (Viannia) braziliensis HMOM/COL/88/UA301-EGFP assessed as effect on serum alanine aminotransferase level at 2.6% administered topically as cream formulation for 20 days and measured day 8 post last treatment; design: species or system Mesocricetus auratus; conditions: in vivo, topical_or_ocular, 480 h
Syrian golden hamster [30] = test: Antiinflammatory activity in golden hamster infected with Leishmania (Viannia) braziliensis HMOM/COL/88/UA301-EGFP assessed as migration of plasmocytes in skin at 2.6% administered topically as cream formulation for 20 days and measured 3 months post last treatment by histopathological analysis; type: functional, organism-based; conditions: Mesocricetus auratus
Syrian golden hamster [31] = test: Antiinflammatory activity in golden hamster infected with Leishmania (Viannia) braziliensis HMOM/COL/88/UA301-EGFP assessed as migration of lymphocytes in skin at 2.6% administered topically as cream formulation for 20 days and measured 3 months post last treatment by histopathological analysis; type: functional, organism-based; conditions: Mesocricetus auratus
[32] = Cytotoxicity against human U937 cells after 72 hrs by MTT assay; type: cell-based, U-937; conditions: read-out: LC50
[33] = Hepatotoxicity in golden hamster infected with Leishmania (Viannia) braziliensis HMOM/COL/88/UA301-EGFP assessed as hemosiderin pigmentation at 2.6% administered topically as cream formulation for 20 days measured 90 days post last dose by histopathological analysis; type: toxicity, Mesocricetus auratus; conditions: in vivo, topical_or_ocular, 2160 h
[34] = Renal toxicity in golden hamster infected with Leishmania (Viannia) braziliensis HMOM/COL/88/UA301-EGFP assessed as vacuolar degeneration at 2.6% administered topically as cream formulation for 20 days measured 90 days post last dose by histopathological analysis; design: species or system Mesocricetus auratus; conditions: in vivo, topical_or_ocular, 2160 h
[35] = Selectivity index, ratio of LC50 for human U937 cells to EC50 for Leishmania (Viannia) braziliensis HMOM/COL/88/UA301-EGFP intracellular amastigotes infected in human U937 cells; type: toxicity, cell-based; conditions: read-out: Selectivity Index
[36] = Hepatotoxicity in golden hamster infected with Leishmania (Viannia) braziliensis HMOM/COL/88/UA301-EGFP assessed as infiltration of lymphocytes at 2.6% administered topically as cream formulation for 20 days measured 90 days post last dose by histopathological analysis; type: toxicity, Mesocricetus auratus; conditions: in vivo, topical_or_ocular, 2160 h
Leishmania braziliensis [37] = test: Antileishmanial activity against Leishmania (Viannia) braziliensis HMOM/COL/88/UA301-EGFP infected in golden hamster assessed as relapse at 2.6% administered topically as cream formulation for 20 days measured 3 months post last dose relative to control; type: functional
[38] = Hepatotoxicity in golden hamster infected with Leishmania (Viannia) braziliensis HMOM/COL/88/UA301-EGFP assessed as infiltration of macrophages at 2.6% administered topically as cream formulation for 20 days measured 90 days post last dose by histopathological analysis; type: toxicity, Mesocricetus auratus; conditions: in vivo, topical_or_ocular, 2160 h

MEGLUMINE ANTIMONATE
Toxic: Activity [1] | Activity [2] | Activity [3] | Activity [4] | Activity [5] | Activity [6] | Activity [7] | Activity [9] | Activity [11] | Activity [12] | Activity [14] | Activity [15] | Activity [16] | Activity [17]
Non-Toxic: Activity [8] | Activity [10] | Activity [13]

C[C@]12C=C[C@@]3(CC[C@@H]4[C@@](C)(CO)CCC[C@@]4(C)[C@@H]3CC1)C2
50%: Activity (Leishmania braziliensis [25])
33.3%: Activity (Leishmania braziliensis [24])
active: Activity (Syrian golden hamster [26]) | Activity (Syrian golden hamster [28]) | Activity (Syrian golden hamster [30]) | Activity (Syrian golden hamster [31])
Toxic: Activity [18] | Activity [22] | Activity [33] | Activity [34] | Activity [36] | Activity [38]
Non-Toxic: Activity [19] | Activity [20] | Activity [27] | Activity [29]
7.7: selectivity ratio [35]
16.7%: Activity (Leishmania braziliensis [37])
122 µM: CC50 at 72 h [32]
0%: Activity (Leishmania braziliensis [21])
18.1 µM: EC50 (Leishmania braziliensis [23])
